# Entries after “also recorded” stand apart in the source; their conditions may differ.
# Experiments:
# [1] = target: T1, human skin fibroblast collagenase (Homo sapiens, UniProt P03956); assay: inhibition of collagenase, synthetic thiol ester substrate, Ki (Table 1); type: biochemical
# T1 construct: endogenous in cells; host or cells: human skin fibroblasts
# T1 sequence (P03956 100-469): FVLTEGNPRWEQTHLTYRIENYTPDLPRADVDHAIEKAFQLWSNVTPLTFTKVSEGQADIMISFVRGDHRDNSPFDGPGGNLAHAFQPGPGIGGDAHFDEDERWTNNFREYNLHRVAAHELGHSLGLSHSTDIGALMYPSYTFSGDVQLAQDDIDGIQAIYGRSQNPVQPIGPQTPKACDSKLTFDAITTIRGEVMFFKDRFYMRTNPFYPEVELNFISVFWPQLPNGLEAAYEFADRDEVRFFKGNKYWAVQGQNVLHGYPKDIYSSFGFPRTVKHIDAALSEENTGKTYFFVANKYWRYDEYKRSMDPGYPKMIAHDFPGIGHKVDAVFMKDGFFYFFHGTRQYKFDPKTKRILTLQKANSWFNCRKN
# Method: Specifically, assay of inhibition activity can be conducted as follows. Inhibitors may be assayed against crude or purified human skin fibroblast collagenase, or purified human gingival fibroblast collagenase using the synthetic thiol ester substrate at pH 6.5 exactly as described by Kortylewicz & Galardy, J Med Chem (1990) 33:263-273, at a collagenase concentration of 1-2 nM. The candidate inhibitors are tested for their ability to inhibit crude collagenase and gelatinase from human skin fibroblasts, crude collagenase and gelatinase from purulent human neutrophils in this assay.
# Stromelysin = Stromelysin (Homo sapiens, UniProt P08254); assay: inhibition of stromelysin (Table 2); type: biochemical; settings: read-out: Strom inhibitory activity
# Chain of Stromelysin (P08254 100-477): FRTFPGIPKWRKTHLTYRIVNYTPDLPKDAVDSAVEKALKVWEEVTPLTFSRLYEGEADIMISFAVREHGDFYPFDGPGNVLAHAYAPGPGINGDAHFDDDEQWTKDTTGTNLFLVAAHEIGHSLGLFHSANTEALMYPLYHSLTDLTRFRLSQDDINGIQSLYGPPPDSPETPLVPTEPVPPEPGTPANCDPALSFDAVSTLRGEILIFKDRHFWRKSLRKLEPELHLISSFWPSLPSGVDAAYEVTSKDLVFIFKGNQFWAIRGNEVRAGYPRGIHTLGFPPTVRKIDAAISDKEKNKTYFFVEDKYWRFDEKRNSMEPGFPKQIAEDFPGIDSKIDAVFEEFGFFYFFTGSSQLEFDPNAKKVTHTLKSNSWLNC
# Method: (§6) Specifically, assay of inhibition activity can be conducted as follows. […] Assays for inhibition of human stromelysin are conducted as described by Teahan, J., et al., Biochemistry (1989) 20:8497-8501.
# (§7) Assay of inhibition activity can be conducted using a fluorogenic substrate developed by Knight et al., FEBS Letters (1992) 296:263. This method uses a fluorometer to determine the rate of substrate hydrolysis in a 96 well plate format. Reaction rates are determined at several substrate concentrations, and multiple inhibitor levels. The data are analyzed by Lineweaver-Burk, Dixon and Henderson plot analyses (Enzyme Kinetics (1975) Irwin Segal (John Wiley & Sons, Inc., publishers), and as described by Henderson, Biochem J. (1972) 127:321). The substrate levels range from 10-30μM. […] Inhibitors may be assayed against purified 72 kD gelatinase, 92 kD gelatinase, neutrophil collagenase, stromelysin or other proteases as appropriate. The enzymes are activated at 37° C. with APMA (4-aminophenylmercuric acetate), and the assays are carried out at room temperature.
# [2] = target: T2, Natural human 72kD gelatinase (Homo sapiens, UniProt P08253); assay: inhibition of 72kD gelatinase (Table 2); type: biochemical; settings: read-out: 72kD G inhibitory activity
# T2 sequence (P08253 110-660): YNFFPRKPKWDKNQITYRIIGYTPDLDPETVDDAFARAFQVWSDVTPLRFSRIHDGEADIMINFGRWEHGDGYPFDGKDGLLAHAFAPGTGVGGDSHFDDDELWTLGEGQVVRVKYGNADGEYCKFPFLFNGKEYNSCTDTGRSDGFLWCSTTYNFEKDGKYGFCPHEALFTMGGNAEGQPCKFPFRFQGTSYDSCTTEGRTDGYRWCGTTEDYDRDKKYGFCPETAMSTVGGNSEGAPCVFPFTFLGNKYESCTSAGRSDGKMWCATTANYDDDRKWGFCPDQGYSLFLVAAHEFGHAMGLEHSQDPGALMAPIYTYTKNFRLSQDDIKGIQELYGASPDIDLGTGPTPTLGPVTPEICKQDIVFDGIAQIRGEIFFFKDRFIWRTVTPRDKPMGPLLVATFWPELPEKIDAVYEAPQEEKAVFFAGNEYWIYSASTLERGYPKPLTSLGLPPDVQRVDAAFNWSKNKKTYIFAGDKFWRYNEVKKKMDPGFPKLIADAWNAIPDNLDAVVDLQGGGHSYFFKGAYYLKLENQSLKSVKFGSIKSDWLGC
# Method: as §6, §7
# 92kD gelatinase = 92kD gelatinase (Homo sapiens, UniProt P14780); assay: inhibition of 92kD gelatinase (Table 2); type: biochemical; settings: read-out: 92kD G inhibitory activity
# Chain of 92kD gelatinase (P14780 107-707 limits assumed): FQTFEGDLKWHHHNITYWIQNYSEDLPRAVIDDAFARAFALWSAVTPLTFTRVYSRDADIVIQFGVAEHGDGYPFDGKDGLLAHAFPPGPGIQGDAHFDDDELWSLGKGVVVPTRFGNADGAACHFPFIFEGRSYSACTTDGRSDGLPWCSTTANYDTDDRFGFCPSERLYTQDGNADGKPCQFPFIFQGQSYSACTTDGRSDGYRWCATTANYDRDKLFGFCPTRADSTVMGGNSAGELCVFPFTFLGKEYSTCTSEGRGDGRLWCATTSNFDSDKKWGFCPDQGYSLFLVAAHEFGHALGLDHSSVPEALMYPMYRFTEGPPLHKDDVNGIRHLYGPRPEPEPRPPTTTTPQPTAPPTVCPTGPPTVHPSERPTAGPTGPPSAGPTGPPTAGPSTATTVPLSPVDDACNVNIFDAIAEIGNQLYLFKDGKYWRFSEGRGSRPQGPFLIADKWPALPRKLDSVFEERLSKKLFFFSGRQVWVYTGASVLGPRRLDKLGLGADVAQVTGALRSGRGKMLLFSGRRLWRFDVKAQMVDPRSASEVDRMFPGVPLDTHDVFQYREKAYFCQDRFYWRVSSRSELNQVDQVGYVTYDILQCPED
# [3] = target: Recombinant neutrophil collagenase (Homo sapiens, UniProt P22894); assay: inhibition of recombinant neutrophil collagenase (Table 2); type: biochemical; settings: read-out: NC inhibitory activity
# Chain of Recombinant neutrophil collagenase (P22894 101-467): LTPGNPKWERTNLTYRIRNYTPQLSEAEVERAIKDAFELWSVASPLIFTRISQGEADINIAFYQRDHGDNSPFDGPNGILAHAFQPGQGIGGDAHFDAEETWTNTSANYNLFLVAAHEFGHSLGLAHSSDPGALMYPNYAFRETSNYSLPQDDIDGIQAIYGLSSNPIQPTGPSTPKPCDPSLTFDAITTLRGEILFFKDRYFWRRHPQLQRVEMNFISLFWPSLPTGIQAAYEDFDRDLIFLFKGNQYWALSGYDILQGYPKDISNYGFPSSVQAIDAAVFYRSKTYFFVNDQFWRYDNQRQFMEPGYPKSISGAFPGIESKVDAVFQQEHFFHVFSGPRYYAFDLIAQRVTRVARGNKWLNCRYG
# Method: as §6, §7
# [4] = target: T3, Human gingival fibrblast collagenase (Homo sapiens, UniProt P03956); assay: inhibition of human gingival fibroblast collagenase (Table 2); type: biochemical; settings: read-out: HGFC inhibitory activity
# T3 construct: endogenous in cells; host or cells: human gingival fibroblasts
# T3 sequence (P03956 100-469): T1 sequence (P03956 100-469)
# Method: as §6, §7
# [5] = system: protease activity of chronic wound fluid; assay: Azocoll assay of protease activity in chronic wound fluid; type: biochemical, human
# Method: (§1) Fluids were collected from 3 types of human wounds termed closed spontaneously healing wounds, open slowly healing wounds, and open chronic wounds. In the first category were fluids collected from the chest wall of women following mastectomy surgery. Fluids from non-infected wounds that were left open for valid surgical reasons were considered open slowly healing wounds. An occlusive dressing was placed over the wound bed, and fluids were collected after 2-6 hours of occlusion. Finally, fluids were also collected from chronic open wounds by covering the wounds with occlusive dressings. Wounds were considered to be chronic if they were not clinically infected and had been open and not healing for more than 4 weeks.
# (§2) The various wound fluids were assayed for matrix metalloproteinase activity using the Azocoll assay essentially as described by Chavira, et al., Analytic Biochemistry (1984), 136:446.
# (§3) The fluids were centrifuged, and the supernatants filtered using a 0.45μ sterile Gelman filter. The filtrates were stored frozen at -80° C. until tested for protease activity.
# (§4) The effects of four inhibitors on the protease activity present in wound fluids were determined. The inhibitors were: compounds
# Stock solutions of the four inhibitors were all prepared at a concentration of 800 μg/ml. Due to different solubility properties of the inhibitors, different techniques were utilized. […] S1209 was dissolved in 1% DMSO then dissolved in 10 mM citrate, pH 5.5, containing 0.05% methyl cellulose. 39A was dissolved in propylene glycol (to give a final concentration of 2.4%) then dissolved in 1 mM CaCl2, 50 mM Tris-Cl, pH 7.8. 21A was dissolved in propylene glycol (2.4%) methyl cellulose (0.05%) and 10 mM citrate, pH 8.
# The protease substrate, Azocoll, was obtained from Sigma Chemical Corporation and it is a substrate for collagenase/gelatinase-like metalloproteinase enzymes and general proteases. Clostridium histolyticum collagenase (the crude form of the enzyme) was from Worthington Biochemicals. General chemicals including TRIS buffer, DMSO, and CaCl2 were from Sigma Chemical Corporation.
# (§5) Briefly, 900 μl of the Azocoll substrate suspension in buffer ([…] in 50 mM TRIS, pH 7.8, 1 mM CaCl2) was added to 1.5 ml microcentrifuge tubes then 50 μl of inhibitor (or buffer) and 50 μl of chronic wound fluid (or collagenase standard) were added to the reaction tube. The reaction tubes were placed at 37° C. in a shaker that inverted the tubes 30 times per minute. After 24 hours of incubation, the reaction tubes were centrifuges at 10,000 X g and the absorbance of the supernatant solution was measured at 520 nm with a Milton-Roy spectrophotometer. Proteolysis of Azocoll substrate generates soluble colored fragments from the insoluble Azocoll substrate. Wound fluid samples were incubated alone or with the inhibitors. Controls included incubation of the Azocoll substrate with the assay buffer to measure spontaneous degradation of the substrate. A standard curve for digestion of the Azocoll substrate was generated by incubation of the Azocoll with crude bacterial collagenase. Protease levels were expressed as net μg of collagenase equivalent per ml of chronic wound fluid. In the figures, certain of the wound fluids are referred to by an individual name.
# For these experiments, due to the different solubility properties of the inhibitors, different techniques were utilized. […] S1209 was dissolved in 1% DMSO then dissolved in 10 mM citrate, pH 5.5, containing 0.05% methyl cellulose. 39A was dissolved in propylene glycol (to give a final concentration of 2.4%) then dissolved in 1 mM CaCl2, […] Tris-Cl, pH 7.8. 21A was dissolved in propylene glycol (2.4%) methyl cellulose (0.05%) and 10 mM citrate, pH 8.
# [6] = system: protease activity in open and chronic wound fluids; assay: Azocoll assay of protease activity in open and chronic wound fluids; type: biochemical, human; settings: for inhibition of Azocoll-degrading proteases in wound fluids: FIG. 6; for effect on proteolytic activity of open and chronic wound fluids: FIG. 5
# Method: as §1, §2, §3, §4
# These inhibitors were compared to certain other inhibitors and these were UL001 [HSCH2 CH(CH2 CH(CH3)2)CO--Phe--Ala--NH2 ] obtained from Peptides International and MP506, obtained from Elastin Products. EDTA (ethylenediamine tetraacetic acid) and PMSF (phenylmethylsulfonyl fluoride) were also studied.
# as §5
# angiogenesis = settings: cited from earlier work
SMILES,Ki (Stromelysin) [nM],Ki [2] [nM],Ki (92kD gelatinase) [nM],Ki [3] [nM],Ki [4] [nM],further results
CC(C)C[C@H](CC(=O)O)C(=O)N[C@@H](Cc1c[nH]c2ccccc12)C(=O)NCCCN1CCOCC1 [Compound 48],19300,145,65,32,–,–
"CC(C)C[C@H](CC(=O)NO)C(=O)N[C@@H](Cc1c[nH]c2ccccc12)C(=O)NCCN1CCOCC1 [Compound 52, N-[2-Isobutyl-3-(N'-hydroxyamidocarbonyl)-propanoyl]-L-tryptophan-3(4-morpholinyl)-n-ethylamide]",57,0.81,0.97,0.19,0.6,–
"CC(C)C[C@H](CC(=O)O)C(=O)N[C@@H](Cc1c[nH]c2ccccc12)C(=O)NCc1ccccc1 [Compound 57, N-[2-Isobutyl-3-hydroxycarbonylpropanoyl]-L-tryptophan-benzylamide]",5140,57,37,20,2.2,–
C[C@H](NC(=O)[C@H](Cc1c[nH]c2ccccc12)NC(=O)[C@@H](CCC(=O)O)NC(=O)OC(C)(C)C)c1ccccc1 [Compound 78],> 10000,> 10000,> 10000,> 10000,2000,–
"C[C@H](NC(=O)[C@H](Cc1c[nH]c2ccccc12)NC(=O)[C@@H](CCC(=O)NO)NC(=O)OC(C)(C)C)c1ccccc1 [Compound 79, Boc-D-gamma-Hydroxamidoglutamyl-L-tryptophan-(S)-methylbenzylamide]",> 10000,> 10000,21100,> 10000,60,–
C[C@H](NC(=O)[C@H](Cc1c[nH]c2ccccc12)NC(=O)[C@@H](CC(=O)O)NC(=O)OC(C)(C)C)c1ccccc1 [Compound 81],> 10000,> 10000,> 10000,> 10000,500,–
"C[C@H](NC(=O)[C@H](Cc1c[nH]c2ccccc12)NC(=O)[C@@H](CC(=O)NO)NC(=O)OC(C)(C)C)c1ccccc1 [Compound 82, Boc-D-beta-hydroxamidoaspartyl-1 -tryptophan-(S)-methylbenzylamide]",> 10000,9260,3580,3260,80,–
CNC(=O)C(Cc1ccc(OC)cc1)NC(=O)C(CC(=O)NO)CC(C)C (stereo not drawn) [Compound S1209],–,–,–,–,–,"inhibition of protease activity of chronic wound fluid ([5]; FIG. 7, highest concentration (800 μg/ml)): 70%; inhibition of Azocoll-degrading proteases in wound fluids [6]: very effectively; also recorded: very effective inhibitors"
"O=C(O)CN(CCN(CC(=O)O)CC(=O)O)CC(=O)O [EDTA, ethylenediamine tetraacetic acid, reference compound]",–,–,–,–,–,"effective concentrations (order of magnitude) ([5]; FIG. 4): mM; inhibition of protease activity of a chronic wound fluid ([5]; FIG. 4): effectively inhibited; reduction of protease activity ([5]; FIG. 4, EDTA at mM concentrations): approximately 96%; effect on proteolytic activity of open and chronic wound fluids [6]: very effective inhibitors; inhibition of Azocoll-degrading proteases in wound fluids [6]: very effectively; reduction of proteolytic activity in open or chronic wound fluids ([6]; fluids with high levels of Azocoll-degrading protease activity): 95%"
"O=S(=O)(F)Cc1ccccc1 [PMSF, phenylmethylsulfonyl fluoride, reference compound]",–,–,–,–,–,"inhibition of protease activity of a chronic wound fluid ([5]; FIG. 4): not an effective inhibitor except at the highest concentration; reduction of proteolytic activity ([5]; FIG. 4, 500 μM): approximately 65%; effect on levels of protease activity at lower concentrations ([5]; FIG. 4, PMSF 500 μM and 50 μM): slightly increase the levels of protease activity; effect on proteolytic activity of open and chronic wound fluids [6]: did not significantly reduce the proteolytic activity; also recorded: did not reduce the levels of proteolytic activity"
CC(C)CC(CS)C(=O)N[C@@H](Cc1ccccc1)C(=O)N[C@@H](C)C(N)=O (stereo partly drawn) [UL001],–,–,–,–,–,inhibition of Azocoll-degrading proteases in wound fluids [6]: very effectively
CCCCC[C@H](CC(=O)NO)C(=O)N[C@H](C(=O)N1CCC[C@H]1CO)C(C)C [actinonin],–,–,–,–,–,activity as an angiogenesis inhibitor (angiogenesis): angiogenesis inhibitor

# Further lines, with some results ahead:
Ki (Stromelysin) [nM],Ki [2] [nM],Ki (92kD gelatinase) [nM],Ki [3] [nM],Ki [4] [nM],SMILES,further results
40,0.37,1.29,0.62,–,"CCCCCCCCCCCCNC(=O)[C@H](Cc1c[nH]c2ccccc12)NC(=O)C(CC(=O)NO)CC(C)C (single isomer, unassigned) [Compound 19A, N-[2-isobutyl-3-(N'-hydroxyamidocarbonyl)-propanoyl]-L-tryptophan dodecylamide]",Ki [1]: 300 nM
94,2.9,–,21,0.1,"CC(C)CC(CC(=O)NO)C(=O)N[C@@H](Cc1c[nH]c2ccccc12)C(=O)NCCCCCCNC(=O)OCc1ccccc1 (stereo partly drawn) [Compound 27A, N-[L-2-isobutyl-3-(N'-hydroxyamidocarbonyl)-propanoyl]-L-tryptophan(6-phenyl-methoxycarbonyl-1-aminohexyl)amide]",Ki [1]: 13 nM
78,4,–,1,0.1,"CC(C)CC(CC(=O)NO)C(=O)N[C@@H](Cc1c[nH]c2ccccc12)C(=O)NC1CCCCC1 (stereo partly drawn) [Compound 28A, N-[L-2-Isobutyl-3-(N'-hydroxyamidocarbonyl)-propanoyl]-L-tryptophan cyclohexylamide]",Ki [1]: 50 nM
